Reference: patent publication US20110212997A1, “PIPERIDINE-4-ACETAMIDE DERIVATIVES AND THEIR USE AS MONOAMINE NEUROTRANSMITTER RE-UPTAKE INHIBITORS” (NEUROSEARCH A/S, priority 2008, published 2011)
Where a name gives a salt, the structure may show the parent alone. Read-outs that look alike come from different tables or passages of the source.

How the values were obtained:
[1] = target: T1, dopamine (DA) reuptake in synaptosomes (Rattus norvegicus, UniProt P23977); test: Inhibition of DA reuptake in synaptosomes; format: biochemical
T1 construct: in synaptosomes as described in WO 97/16451; from tissue
Description: (§1) Compounds were tested for their ability to inhibit the reuptake of the monoamine neurotransmitters dopamine (DA) noradrenaline (NA) and serotonine (5-HT) in synaptosomes as described in WO 97/16451 (NeuroSearch NS).
(§2) The test values are given as IC50 (the concentration (μM) of the test substance which inhibits the specific binding of ^3H-DA, ^3H-NA, or ^3H-5-HT by 50%).

[2] = target: T2, serotonine (5-HT) reuptake in synaptosomes (Rattus norvegicus, UniProt P31652); test: Inhibition of 5-HT reuptake in synaptosomes; format: biochemical; conditions: 3H-5-HT, read-out: 5-HT-uptake IC50
T2 construct: serotonine (5-HT) in synaptosomes as described in WO 97/16451; from tissue
Description: as §1, §2

[3] = target: T3, noradrenaline (NA) reuptake in synaptosomes (Rattus norvegicus, UniProt Q63380); test: Inhibition of NA reuptake in synaptosomes; format: biochemical
T3 construct: in synaptosomes as described in WO 97/16451; from tissue
Description: as §1, §2

[4] = synaptosomes, 3H-DA, read-out: DA-uptake IC50
[5] = synaptosomes, 3H-NA, read-out: NA-uptake IC50

T2 sequence (P31652 whole entry): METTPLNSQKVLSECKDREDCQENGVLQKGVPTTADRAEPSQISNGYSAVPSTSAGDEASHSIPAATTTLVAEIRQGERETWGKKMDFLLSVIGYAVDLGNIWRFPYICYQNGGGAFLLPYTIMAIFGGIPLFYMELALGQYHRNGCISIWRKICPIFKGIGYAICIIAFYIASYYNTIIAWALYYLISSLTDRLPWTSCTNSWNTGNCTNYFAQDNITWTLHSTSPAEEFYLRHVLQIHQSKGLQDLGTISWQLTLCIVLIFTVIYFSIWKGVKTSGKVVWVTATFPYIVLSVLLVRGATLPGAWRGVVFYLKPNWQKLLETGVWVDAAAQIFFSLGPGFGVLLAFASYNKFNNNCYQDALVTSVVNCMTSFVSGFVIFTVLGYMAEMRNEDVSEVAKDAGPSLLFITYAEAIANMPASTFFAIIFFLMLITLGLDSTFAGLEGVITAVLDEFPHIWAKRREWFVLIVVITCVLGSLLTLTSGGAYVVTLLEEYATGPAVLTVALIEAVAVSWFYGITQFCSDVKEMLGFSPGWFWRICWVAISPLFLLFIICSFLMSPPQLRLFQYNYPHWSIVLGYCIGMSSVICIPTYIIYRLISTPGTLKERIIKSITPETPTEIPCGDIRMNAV
T1 sequence (P23977 whole entry): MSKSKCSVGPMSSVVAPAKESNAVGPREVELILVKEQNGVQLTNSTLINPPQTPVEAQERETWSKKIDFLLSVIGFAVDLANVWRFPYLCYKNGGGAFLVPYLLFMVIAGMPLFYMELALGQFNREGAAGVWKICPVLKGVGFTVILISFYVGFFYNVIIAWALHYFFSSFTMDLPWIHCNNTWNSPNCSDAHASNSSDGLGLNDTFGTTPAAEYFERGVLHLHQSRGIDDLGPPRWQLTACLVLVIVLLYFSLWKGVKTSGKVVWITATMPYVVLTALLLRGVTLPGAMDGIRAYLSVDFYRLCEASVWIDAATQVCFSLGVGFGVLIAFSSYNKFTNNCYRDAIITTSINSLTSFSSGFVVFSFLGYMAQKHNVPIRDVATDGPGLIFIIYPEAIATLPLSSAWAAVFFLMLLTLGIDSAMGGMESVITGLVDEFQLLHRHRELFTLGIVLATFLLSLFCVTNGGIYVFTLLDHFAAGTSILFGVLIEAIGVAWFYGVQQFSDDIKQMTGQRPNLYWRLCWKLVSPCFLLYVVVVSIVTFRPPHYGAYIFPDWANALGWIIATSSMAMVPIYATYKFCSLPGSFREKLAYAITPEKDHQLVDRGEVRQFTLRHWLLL
T3 sequence (Q63380 1-617): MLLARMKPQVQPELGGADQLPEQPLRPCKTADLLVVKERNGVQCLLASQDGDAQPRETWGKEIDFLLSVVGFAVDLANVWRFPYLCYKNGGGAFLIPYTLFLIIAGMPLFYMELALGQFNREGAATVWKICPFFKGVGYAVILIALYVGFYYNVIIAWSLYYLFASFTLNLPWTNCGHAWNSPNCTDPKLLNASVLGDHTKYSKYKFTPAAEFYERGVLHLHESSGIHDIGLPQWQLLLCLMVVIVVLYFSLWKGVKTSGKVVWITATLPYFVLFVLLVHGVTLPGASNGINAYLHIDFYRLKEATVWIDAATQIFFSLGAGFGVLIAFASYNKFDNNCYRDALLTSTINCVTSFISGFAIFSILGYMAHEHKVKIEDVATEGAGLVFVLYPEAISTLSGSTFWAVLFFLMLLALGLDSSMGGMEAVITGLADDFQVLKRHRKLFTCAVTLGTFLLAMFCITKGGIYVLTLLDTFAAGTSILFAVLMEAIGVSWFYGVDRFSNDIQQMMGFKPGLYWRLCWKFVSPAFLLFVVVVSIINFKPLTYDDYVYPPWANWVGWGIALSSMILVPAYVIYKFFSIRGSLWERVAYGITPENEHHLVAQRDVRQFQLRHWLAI

SMILES | melting point | IC50 [1, 4] | IC50 [2] | IC50 [3, 5] | IC50 [1] | IC50 [3]
CCN(C(=O)CC1CCNCC1)c1cc(Cl)ccc1Cl (as salt: fumaric acid salt) [Compound C7, N-(2,5-Dichloro-phenyl)-N-ethyl-2-piperidin-4-yl-acetamide] | 190 to 192 °C |  |  |  |  | 
CCN(C(=O)CC1CCNCC1)c1c(Cl)cccc1Cl (as salt: fumaric acid salt) [Compound C8, N-(2,6-Dichloro-phenyl)-N-ethyl-2-piperidin-4-yl-acetamide] | 167 to 169 °C |  |  |  |  | 
CCN(C(=O)CC1CCNCC1)c1cc(Cl)cc(Cl)c1 (as salt: fumaric acid salt) [Compound C9, N-(3,5-Dichloro-phenyl)-N-ethyl-2-piperidin-4-yl-acetamide] | 151 to 153 °C |  |  |  |  | 
CN(C(=O)CC1CCNCC1)c1ccc(Cl)c(Cl)c1 [Compound B1, N-(3,4-Dichloro-phenyl)-N-methyl-2-piperidin-4-yl-acetamide] |  | 230 nM | 280 nM | 120 nM |  | 
CCN(C(=O)CC1CCNCC1)c1ccc(Cl)c(Cl)c1 [Compound C1, N-(3,4-Dichloro-phenyl)-N-ethyl-2-piperidin-4-yl-acetamide] |  | 15 nM | 1500 nM | 6.6 nM |  | 
O=C(CC1CCNCC1)Nc1ccc(Cl)c(Cl)c1 [Compound C2, N-(3,4-Dichloro-phenyl)-2-piperidin-4-yl-acetamide] |  | > 1000 nM | 23 nM | > 1000 nM |  | 
CCN(C(=O)CC1CCNCC1)c1ccc(Cl)cc1 [Compound C3, N-(4-Chloro-phenyl)-N-ethyl-2-piperidin-4-yl-acetamide] |  | 450 nM | > 1000 nM | 770 nM |  | 
CCN(C(=O)CC1CCNCC1)c1cccc(Cl)c1 [Compound C4, N-(3-Chloro-phenyl)-N-ethyl-2-piperidin-4-yl-acetamide] |  | 600 nM | > 1000 nM | 460 nM |  | 
CCN(C(=O)CC1CCNCC1)c1cccc2ccccc12 [Compound C5, N-Ethyl-N-naphthalen-1-yl-2-piperidin-4-yl-acetamide] |  | > 1000 nM | > 1000 nM | 600 nM |  | 
CCN(C(=O)CC1CCNCC1)c1cccc(Cl)c1Cl [Compound C6, N-(2,3-Dichloro-phenyl)-N-ethyl-2-piperidin-4-yl-acetamide] |  | > 1000 nM | > 1000 nM | 910 nM |  | 
CCN(C(=O)CC1CCNCC1)c1cc(Cl)ccc1Cl [Compound C7, N-(2,5-Dichloro-phenyl)-N-ethyl-2-piperidin-4-yl-acetamide] |  | 2600 nM | > 1000 nM | 1500 nM |  | 
CCN(C(=O)CC1CCNCC1)c1c(Cl)cccc1Cl [Compound C8, N-(2,6-Dichloro-phenyl)-N-ethyl-2-piperidin-4-yl-acetamide] |  | > 1000 nM | > 1000 nM | 2700 nM |  | 
CCN(C(=O)CC1CCNCC1)c1cc(Cl)cc(Cl)c1 [Compound C9, N-(3,5-Dichloro-phenyl)-N-ethyl-2-piperidin-4-yl-acetamide] |  | 1900 nM | > 1000 nM | 670 nM |  | 
CCN(C(=O)CC1CCNCC1)c1ccc(Cl)c(Cl)c1Cl [Compound C10, N-Ethyl-2-piperidin-4-yl-N-(2,3,4-trichloro-phenyl)-acetamide] |  | 630 nM | 1400 nM | 120 nM |  | 
CCN(C(=O)CC1CCNCC1)c1ccc(Br)c(Br)c1 [Compound C11, N-(3,4-Dibromo-phenyl)-N-ethyl-2-piperidin-4-yl-acetamide] |  | 2.2 nM | 610 nM | 1.2 nM |  | 
CCCN(C(=O)CC1CCNCC1)c1ccc(Cl)c(Cl)c1 [Compound C12, N-(3,4-Dichloro-phenyl)-2-piperidin-4-yl-N-propyl-acetamide] |  | 12 nM | 880 nM | 5.2 nM |  | 
CCN(C(=O)CC1CCNCC1)c1ccc(Cl)c(Br)c1 [Compound C13, N-(3-Bromo-4-chloro-phenyl)-N-ethyl-2-piperidin-4-yl-acetamide] |  | 8 nM | 1200 nM | 1.3 nM |  | 
CCCN1CCC(CC(=O)N(CC)c2ccc(Cl)c(Cl)c2)CC1 [Compound D9, N-(3,4-Dichloro-phenyl)-N-ethyl-2-(1-propykpiperidin-4-yl)-acetamide] |  |  | 780 nM |  | 12 nM | 3.8 nM

Now from value to compound, other results behind:

melting point | IC50 [1, 4] | IC50 [2] | IC50 [3, 5] | SMILES | IC50 [1] | IC50 [3]
 | 20 nM | 1400 nM | 4.4 nM | CCN(C(=O)CC1CCN(C)CC1)c1ccc(Cl)c(Cl)c1 [Compound D1, N-(3,4-Dichloro-phenyl)-N-ethyl-2-(1-methyl-piperidin-4-yl)-acetamide] |  | 
 | 970 nM | > 1000 nM | 390 nM | CCN(C(=O)CC1CCN(C)CC1)c1ccc(Cl)cc1 [Compound D2, N-(4-Chloro-phenyl)-N-ethyl-2-(1-methyl-piperidin-4-yl)-acetamide] |  | 
 | > 1000 nM | > 1000 nM | 1700 nM | CCN(C(=O)CC1CCN(C)CC1)c1cccc2ccccc12 [Compound D3, N-Ethyl-2-(1-methyl-piperidin-4-yl)-N-naphthalen-1-yl-acetamide] |  | 
 | 8.6 nM | 2100 nM | 2.6 nM | CCN(C(=O)CC1CCNCC1)c1ccc(Br)c(Cl)c1 [Compound D4, N-(4-Bromo-3-chloro-phenyl)-N-ethyl-2-piperidin-4-yl-acetamide] |  | 
 | > 1000 nM | > 1000 nM | > 1000 nM | CCN(C(=O)CC1CCNCC1)c1ccc(Cl)cc1Cl [Compound D5, N-(2,4-Dichloro-phenyl)-N-ethyl-2-piperidin-4-yl-acetamide] |  | 
 | > 1000 nM | > 1000 nM | > 1000 nM | CN1CCC(CC(=O)Nc2ccc(Cl)c(Cl)c2)CC1 [Compound D6, N-(3,4-Dichloro-phenyl)-2-(1-methyl-piperidin-4-yl)-acetamide] |  | 
 | 970 nM | > 1000 nM | 350 nM | CCN(C(=O)CC1CCN(C)CC1)c1cccc(Cl)c1 [Compound D7, N-(3-Chloro-phenyl)-N-ethyl-2-(1-methyl-piperidin-4-yl)-acetamide] |  | 
 | > 1000 nM | > 1000 nM | > 1000 nM | CCN(C(=O)CC1CCN(C)CC1)c1cccc(Cl)c1Cl [Compound D8, N-(2,3-Dichloro-phenyl)-N-ethyl-2-(1-methyl-piperidin-4-yl)-acetamide] |  | 
 | 31 nM | 1200 nM | 7.7 nM | CCN(C(=O)CC1CCN(C(C)C)CC1)c1ccc(Cl)c(Cl)c1 [Compound D10, N-(3,4-Dichloro-phenyl)-N-ethyl-2-(1-isopropyl-piperidin-4-yl)-acetamide] |  | 
 | 13 nM | 870 nM | 3.2 nM | CCN1CCC(CC(=O)N(CC)c2ccc(Cl)c(Cl)c2)CC1 [Compound D11, N-(3,4-Dichloro-phenyl)-N-ethyl-2-(1-ethyl-piperidin-4-yl)-acetamide] |  | 
 | 160 nM | > 1000 nM | 69 nM | CN1CCC(CC(=O)N(C)c2ccc(Cl)c(Cl)c2)CC1 [Compound D12, N-(3,4-Dichloro-phenyl)-N-methyl-2-(1-methyl-piperidin-4-yl)-acetamide] |  | 
 | 16 nM | 1500 nM | 2.7 nM | CCN(C(=O)CC1CCN(C)CC1)c1ccc(Br)c(Cl)c1 [Compound D13, N-(4-Bromo-3-chloro-phenyl)-N-ethyl-2-(1-methyl-piperidin-4-yl)-acetamide] |  | 
 | 2500 nM | > 1000 nM | 960 nM | CCN(C(=O)CC1CCN(C)CC1)c1ccc(Cl)cc1Cl [Compound D14, N-(2,4-Dichloro-phenyl)-N-ethyl-2-(1-methyl-piperidin-4-yl)-acetamide] |  | 
 | 1700 nM | > 1000 nM | 860 nM | CCN(C(=O)CC1CCN(C)CC1)c1cc(Cl)ccc1Cl [Compound D15, N-(2,5-Dichloro-phenyl)-N-ethyl-2-(1-methyl-piperidin-4-yl)-acetamide] |  | 
 | > 1000 nM | > 1000 nM | > 1000 nM | CCN(C(=O)CC1CCN(C)CC1)c1c(Cl)cccc1Cl [Compound D16, N-(2,6-Dichloro-phenyl)-N-ethyl-2-(1-methyl-piperidin-4-yl)-acetamide] |  | 
 | > 1000 nM | > 1000 nM | 1800 nM | CCN(C(=O)CC1CCN(C)CC1)c1cc(Cl)cc(Cl)c1 [Compound D17, N-(3,5-Dichloro-phenyl)-N-ethyl-2-(1-methyl-piperidin-4-yl)-acetamide] |  | 
 |  | 2100 nM | 81 nM | CCN(C(=O)CC1CCN(C)CC1)c1ccc(Cl)c(Cl)c1Cl [Compound D18, N-Ethyl-2-(1-methyl-piperidin-4-yl)-N-(2,3,4-trichloro-phenyl)-acetamide] |  | 
 | 3.6 nM | 680 nM | 1.1 nM | CCN(C(=O)CC1CCN(C)CC1)c1ccc(Br)c(Br)c1 [Compound D19, N-(3,4-Dibromo-phenyl)-N-ethyl-2-(1-methyl-piperidin-4-yl)-acetamide] |  | 
 | 12 nM | 700 nM | 3.4 nM | CCCN(C(=O)CC1CCN(C)CC1)c1ccc(Cl)c(Cl)c1 [Compound D20, N-(3,4-Dichloro-phenyl)-2-(1-methyl-piperidin-4-yl)-N-propyl-acetamide] |  | 
 | 12 nM | 1200 nM | 2.3 nM | CCN(C(=O)CC1CCN(C)CC1)c1ccc(Cl)c(Br)c1 [Compound D21, N-(3-Bromo-4-chloro-phenyl)-N-ethyl-2-(1-methyl-piperidin-4-yl)-acetamide] |  | 
